Entries after “also recorded” stand apart in the source; their conditions may differ.
Tests used:
[1] = tested on: rat neural precursor cells; experiment: Neural precursor cell proliferation in basal medium, BrdU pulse (FIG. 3C); assay type: cell-based; settings: rat neural precursor cells in basal medium (DMEM/F12/N2)
Text: (§1) FIGS. 3A-3C depict dose-curve matrices of OT, Alk5i and OT+Alk5i effects on myogenic and neurogenic cell proliferation. FIGS. 3A-3C show the effect of the indicated concentrations of OT (in nM) and Alk5-inhibitor (a5i, μM) on primary myoblasts in Opti-MEM (FIG. 3A); on old satellite cells isolated from 3 DPI muscle in Opti-MEM with 5% old mouse serum (FIG. 3B); and on rat neural precursor cells in basal medium (DMEM/F12/N2) (FIG. 3C). Cells were pulsed with BrdU, and BrdU immunodetection and Hoechst staining were performed. Percent proliferating cells (myogenic and neurogenic) were quantified (manually, by ImageJ and by Molecular Devices ImageXpress Micro automated epifluorescence imager, with automated cell quantification by MetaXpress). Shown is the percent proliferation visualized as a topographic map.
Isolation and Culture of Neural Progenitor Cells: Primary rat neural progenitor cells (NPCs) isolated from the hippocampi of Fisher 344 rats (Charles River) will be maintained in DMEM/F12 (Life Technologies) containing N2 supplement (Life Technologies) and 10 ng/mL FGF-2 (PeproTech) on laminin (Roche) and polyornithine (Sigma) coated tissue culture plates. […]

primary myoblasts = experiment: Primary myoblast proliferation, BrdU pulse, OT/Alk5i dose matrix (FIG. 3A); assay type: cell-based, mouse; settings: primary myoblasts in Opti-MEM (low mitogen), OT in nM, Alk5i in μM
Text: as §1
Isolation of Muscle Stem Cells and Primary Myoblasts: Tibialis Anterior (TA) and Gastrocneimus (Gastroc) muscles will undergo enzymatic digestion with collagenase type II. Fat pads and tendons will be removed and rounds of muscle trituration and sedimentation will purify myofibers with associated muscle stem (satellite) cells. Myofibers will be incubated with collagenase type II and dispase; suspensions will be vortexed to release satellite cells from digested fibers, passed through a cell strainer and pre-plated on uncoated dishes for 20 minutes at 37° C., 5% CO2. […]

[2] = tested on: muscle stem cells (satellite cells); settings: cited from earlier work
[3] = tested on: muscle stem cells (satellite cells); experiment: Effects of OT and OTA on muscle stem (satellite) cells; assay type: cell-based, mouse
muscle regeneration [4] = settings: Elabd et al. 2014, cited from earlier work
[5] = tested on: TA muscle regeneration after CTX injury; experiment: In vivo epistasis between TGFβ1 and oxytocin: TA muscle regeneration after CTX injury (FIG. 4A-4B); parameters: species or system mouse; settings: young (3 mo) mice, CTX-injured TA, 5 days after injury; for Muscle regeneration after injury, effect of ectopic TGFβ1 alone (histology): recombinant TGFβ1 20 ng/muscle
Method: Further support for the advantages of the combined administration of OT and Alk5i comes from the observation of epistasis between the TGF-beta1 and oxytocin.
FIGS. 4A and 4B show the in vivo epistasis between TGFβ1 and Oxytocin. Young (3 mo) mouse TA muscles were injured with CTX with or without recombinant TGFβ1 (20 ng/muscle), and mice were administered 1 μg/g OT or vehicle (HBSS) by subcutaneous delivery into circulation. TGFβ1 or vehicle and OT were administered again the following day. Mice were sacrificed 5 days after injury and muscle sectioned for histological examination (with Hematoxilin and Eosin staining) in 10 um cryosections. All samples were processed and analyzed in a blinded study. […] FIG. 4B depicts the regenerative index of the three different conditions. The regenerative index was quantified by expressing the number of newly formed fibers over total nuclei in the injury/regeneration sites; *p<0.01.

muscle regeneration [6] = experiment: Systemic oxytocin or oxytocin antagonist and muscle regeneration in mice; assay type: in vivo, mouse; settings: OT alone
Text: OXTR agonists may be used to treat and prevent sarcopenia, improve muscle regeneration after injury and prevent muscle mass loss observed after long term immobilization (bed rest or cast), as well as low gravity (space travel). Specifically, oxytocin is more desirable than other drugs on the market or under development, since it is physiologic, has virtually no side effects and is already FDA approved to induce labor in pregnant women and in clinical trials to treat children with autism. The plasmatic level of oxytocin decreases with age in mice. […] Confirming the dependence of muscle maintenance and repair on oxytocin, mice with a knock out in oxytocin have defective muscle regeneration and premature sarcopenia (loss of muscle tissue). Oxytocin is also known to prevent osteoporosis and regulate fat distribution after menopause. Oxytocin inhibits p16 (marker and effector of senescence) in adult stem cells, thereby enabling their productive responses to maintain and repair tissues.

Question: What does the source list for Cc1cccc(-c2n[nH]cc2-c2ccc3ncccc3n2)n1 [Alk5i, 2-(3-(6-Methylpyridin-2-yl)-1H-pyrazol-4-yl)-1,5-naphthyridine]?
Answer: Percent proliferating cells (BrdU), NPC proliferation [1]: diminishes proliferation of NPCs; Expression of CDKIs (aged mice; aged mice): attenuates the expression of CDKIs; Myogenesis and neurogenesis (aged mice; aged/old mice, systemic Alk5i alone, listed as ALK5 inhibitor): simultaneously rejuvenates myogenesis and neurogenesis; Inflammation (aged mice; delivered systemically into 2-year old mice): reduces inflammation; pSmads in Sox-2+ cells of SGZ (aged mice; systemically administered): down-modulating pSmads; Percent proliferating cells (BrdU), myoblast proliferation (primary myoblasts): bi-phasic effect on myoblast proliferation

Question: What does the source list for CC[C@H](C)[C@@H]1NC(=O)[C@H](Cc2ccc(O)cc2)NC(=O)[C@@H](N)CSSC[C@@H](C(=O)N2CCC[C@H]2C(=O)N[C@@H](CC(C)C)C(=O)NCC(N)=O)NC(=O)[C@H](CC(N)=O)NC(=O)[C@H](CCC(N)=O)NC1=O [OT, oxytocin]?
Answer: p16 (marker and effector of senescence) in adult stem cells [2]: inhibits p16; pERK in muscle stem cells ([3]; muscle stem cells): activates pERK; CDKIs in satellite cells ([3]; old satellite cells): attenuates CDKIs; Proliferation and myogenicity of old satellite cells ([3]; old satellite cells): enhances proliferation and myogenicity; OtKO satellite cell decline ([3]; satellite cells of oxytocin knock out (OtKO) mice): rescues the OtKO satellite cell decline; Muscle regeneration in old mice (muscle regeneration [4]; old mice, short term subcutaneous injection (systemic delivery)): able to restore muscle regeneration; Muscle regeneration after injury in mice given ectopic TGFβ1 (histology) ([5]; TGFβ1 20 ng/muscle, OT 1 μg/g subcutaneous): rescued muscle regeneration; also recorded: rescues the regeneration of young muscle injected with TGFβ1; Muscle maintenance and repair in old mice (muscle regeneration [6]): significantly enhances muscle maintenance and repair

Question: With COc1cc(OC2CCN(C(C)=O)CC2)ccc1C(=O)N1CCC(N2C(=O)OCc3ccccc32)CC1 [OTA] as the molecule, how does the “Myogenicity of young satellite cells” value ([3]; young satellite cells) read?
Answer: inhibits myogenicity

Question: And the “Muscle regeneration potential in young mice” value (muscle regeneration [4]; young mice, injection of oxytocin antagonist)?
Answer: prematurely ages their muscle regeneration potential

Question: For “TGFβ1: recombinant TGFβ1, given ectopically into injured muscle (R&D systems)”, which “Muscle regeneration after injury, effect of ectopic TGFβ1 alone (histology)” value [5] is on record?
Answer: promotes scarring

Question: And the “Muscle regeneration after injury, effect of ectopic TGFβ1 alone (histology)” value ([5]; listed as TGF-beta 1)?
Answer: inhibited muscle regeneration
